Drawing on patent US7087622B2, “Pyridone compounds as inhibitors of bacterial type III protein secreation systems” (priority 2004, dated 2006), this text covers IC50 for 17 compounds.

What all share (assay type): cell-based
The test system of assay [1] is SPI1 type III protein secretion system (SopE-Bla secretion). In words: Primary assay: Type III protein secretion of the chimeric SopE-Bla polypeptide by Salmonella enterica (nitrocefin hydrolysis). The note with it: read-out: SopE IC50(uM). The text has this: Primary assay: Type III protein secretion of the chimeric SopÉ-Bla polypeptide by Salmonella enterica. This procedure is a cell-based assay that measures the type III-dependent secretion by Salmonella enterica of a plasmid-encoded chimeric polypeptide whose synthesis can be regulated, and which is endowed with an enzymatic activity that can be monitored calorimetrically by hydrolysis of a substrate that is unable to penetrate into the bacterial cytoplasm within the time constraints of the reaction. Thus, the colorimetric reaction is not influenced by SopÉ-Bla polypeptide in the bacterial cytoplasm. Instead, it effectively measures the amount of polypeptide that has been secreted from the S. enterica cytoplasm to the extracellular medium via type III system protein secretion.
The SopÉ-Bla recombinant polypeptide consists of two functionally distinct domains spliced together. The N-terminus domain is encoded by a polynucleotide region specifying the signal for type III secretion of the SopE polypeptide of S. enterica, an effector of the SPI1 type III protein secretion system. The C-terminus domain of SopÉ-Bla consists of a 263 amino acid peptide sequence that corresponds to the TEM-1 β-lactamase expressed by plasmid pBR322 but without its N-terminal signal sequence. The TEM-1 β-lactamase part of the SopÉ-Bla chimeric polypeptide is used as a reporter enzyme. It is capable of hydrolyzing nitrocefin resulting in a product whose accumulation can be monitored by colorimetric detection. The secretion of the SopÉ-Bla chimeric polypeptide from the cytoplasm to the extracellular medium is dependent on type III protein secretion.
For this procedure, cells grown under conditions known to favor a functional SPI1 secretion system are induced for expression of the SopÉ-Bla protein and grown either in the presence or in the absence of putative inhibitors for determined time. Nitrocefin is then added to the various cultures and its hydrolysis are used for quantitation. An inhibitor of Type III protein secretion is generally a compound that reduces the signal of the enzymatic reaction by decreasing the amount of SopÉ-Bla secreted into the extracellular medium.

Assay [2] concerns SPI1 type III protein secretion system (SipB secretion). In words: Secondary assay: Type III-dependent protein secretion of the SipB polypeptide by S. enterica (immunoblot). The note with it: Salmonella enterica, read-out: SipB IC50(uM). The method, then: Secondary assay: Type III-dependent protein secretion of the SipB polypeptide by S. enterica. The SipB protein of S. enterica is another effector of the SPI1 type III protein secretion system from S. enterica. In this cell-based procedure, the Type III-dependent secretion of SipB from the bacterial cytoplasm to the extracellular medium was measured through its reactivity with a cognate mouse monoclonal.
Salmonella enterica cells growing either in the presence or in the absence of inhibitors are induced for the production of SipB. Following an established period of growth the cells are sedimented and the amount of SipB present in the supernatant is quantified with a scanning imager following application of immunoblot techniques. Detection may employ an anti-SipB mouse monoclonal antibody (e.g., obtained from Jorge Galan, SUNY at Stony Brook, N.Y.) followed by treatment with commercially available sheep anti-mouse polyclonal antibody conjugated with horseradish peroxidase. Thereafter the membrane is treated with a peroxidase chemiluminescent substrate and exposed to film for an appropriate exposure time. Inhibition may be measured relative to untreated controls.

Assay [3] deals with type III protein secretion system of P. aeruginosa PA103 (ExoU secretion). In words: Tertiary assay: Type III-dependent secretion of ExoU by P. aeruginosa PA103 (SDS-PAGE band quantitation). As to conditions: Pseudomonas aeruginosa, ExoU secreted into extracellular medium. The text has this:
Tertiary assay: inhibition of Type III protein secretion of effectors from a Pseudomonas aeruginosa system. Type III protein secretion is used by P. aeruginosa to secrete several essential virulence determinants. One effector of the type III protein secretion system of P. aeruginosa PA103 is the virulence determinants ExoU.
The amount of Type III-dependent secretion of ExoU by P. aeruginosa PA103 can be determined in a cell-based assay by quantification of the 73.9 kDa ExoU protein secreted into the extracellular medium. Such quantitation can be achieved by growing strain PA103 in a deferrated medium in the presence of nitrilotriacetic acid (an inducer of Type III protein secretion in P. aeruginosa) and either in the presence or absence of putative inhibitors. After a prolonged growth period, the cells are sedimented and the supernatants concentrated by ammonium sulfate precipitation. The proteins in the resuspended pellets are separated by electrophoresis on SDS-polyacrylamide gels. After staining gels with Colloidal Blue™, the 73.9 kDa ExoU band is quantitated by scanning through an imager. The effects of inhibitors on the intensity of the ExoU band may be measured relative to that of untreated controls.

SMILES strings stand for the structures.

Consider `O=C(Nc1cc(-c2cccc(O)c2)cn(C(Cc2ccc(Cl)cc2)C(=O)O)c1=O)c1ccc(C(F)(F)F)cc1` (stereo not drawn) [Compound 30, 3-(4-Chlorophenyl)-2-[5-(3-hydroxyphenyl)-2-oxo-3-(4-trifluoromethyl-benzoylamino)-2H-pyridin-1-yl]propionic acid], for which the IC50 in assay [1] was 19.3 µM; in assay [2], 33.4 µM; in assay [3] it was greater than 100 µM.
With `O=C(Nc1cc(-c2ccc(Cl)cc2)cn(C(Cc2ccc(Cl)cc2)C(=O)O)c1=O)c1ccc(-c2ccccc2)cc1` (stereo not drawn) [Compound 33, 2-[3-[(Biphenyl-4-carbonyl)amino]-5-(4-chlorophenyl)-2-oxo-2H-pyridin-1-yl]-3(4-chlorophenyl)propionic acid], the IC50 in assay [1] was 7.6 µM; in assay [2], 39 µM; in assay [3], greater than 50 µM.
Taken in the same sequence, the figures for `O=C(Nc1cc(-c2ccc(Cl)c(Cl)c2)cn(C(Cc2ccc(Cl)cc2)C(=O)O)c1=O)c1ccc(-c2ccccc2)cc1` (stereo not drawn) [Compound 34, 2-[3-[(Biphenyl-4-carbonyl)amino]-5-(3,4-dichlorophenyl)-2-oxo-2H-pyridin-1-yl]-3-(4-chlorophenyl)propionic acid] were 8.7 µM, 24.8 µM and greater than 100 µM.
`O=C(Nc1cc(-c2ccc(F)cc2)cn(C(Cc2ccc(Cl)cc2)C(=O)O)c1=O)c1ccc(-c2ccccc2)cc1` (stereo not drawn) [Compound 35, 2-[3-[(Biphenyl-4-carbonyl)amino]-5-(4-fluorophenyl)-2-oxo-2H-pyridin-1-yl]-3-(4-chlorophenyl)propionic acid]: the values for the IC50 in assay [1], in assay [2] and in assay [3] were 2.3 µM, 58.4 µM and 7.5 µM, respectively.
On the same counts, the results for `O=C(Nc1cc(-c2ccc(C(F)(F)F)cc2)cn(C(Cc2ccc(Cl)cc2)C(=O)O)c1=O)c1ccc(-c2ccccc2)cc1` (stereo not drawn) [Compound 38, 2-[3-[(Biphenyl-4-carbonyl)amino]-2-oxo-5-(4-trifluoromethylphenyl)-2H-pyridin-1-yl]-3-(4-chlorophenyl)propionic acid] are 1.2 µM, 3.1 µM and 21.3 µM.
With `O=C(Nc1cc(-c2ccc(O)cc2)cn(C(Cc2ccc(Cl)cc2)C(=O)O)c1=O)c1ccc(-c2ccccc2)cc1` (stereo not drawn) [Compound 39, 2-[3-[(Biphenyl-4-carbonyl)amino]-5-(4-hydroxyphenyl)-2-oxo-2H-pyridin-1-yl]-3-(4-chlorophenyl)propionic acid], the 50% inhibitory concentration (IC50) is 3.6 µM in assay [1], greater than 100 µM in assay [2] and 80.5 µM in assay [3].
On the same counts, the results for `CN(C)c1ccc(-c2cc(NC(=O)c3ccc(-c4ccccc4)cc3)c(=O)n(C(Cc3ccc(Cl)cc3)C(=O)O)c2)cc1` (stereo not drawn) [Compound 40, 2-[3-[(Biphenyl-4-carbonyl)amino]-5-(4-dimethylaminophenyl)-2-oxo-2H-pyridin-1-yl]-3-(4-chlorophenyl)propionic acid] are 2.8 µM, 10.2 µM and 56.4 µM.
Regarding `COc1ccc(-c2cc(NC(=O)c3ccc(-c4ccccc4)cc3)c(=O)n(C(Cc3ccc(Cl)cc3)C(=O)O)c2)cc1OC` (stereo not drawn) [Compound 41, 2-[3-[(Biphenyl-4-carbonyl)amino]-5-(3,4-dimethoxyphenyl)-2-oxo-2H-pyridin-1-yl]-3-(4-chlorophenyl)propionic acid], the IC50 in assay [1] came to 3.2 µM; in assay [2], 15.9 µM; in assay [3] it was 67.4 µM.
On the same counts, the results for `O=C(Nc1cc(-c2ccc3ccccc3c2)cn(C(Cc2ccc(Cl)cc2)C(=O)O)c1=O)c1ccc(-c2ccccc2)cc1` (stereo not drawn) [Compound 42, 2-{3-[(Biphenyl-4-carbonyl)amino]-5-naphthalen-2-yl-2-oxo-2H-pyridin-1-yl}-3-(4-chlorophenyl)propionic acid] are 1.1 µM, 76.2 µM and 41.3 µM.
On the same counts, the results for `O=C(Nc1cc(-c2ccc3[nH]ccc3c2)cn(C(Cc2ccc(Cl)cc2)C(=O)O)c1=O)c1ccc(-c2ccccc2)cc1` (stereo not drawn) [Compound 43, 2-[3-[(Biphenyl-4-carbonyl)amino]-5-(1H-indol-5-yl)-2-oxo-2H-pyridin-1-yl]-3-(4-chlorophenyl)propionic acid] are 1.9 µM, greater than 100 µM and 28 µM.
Taken in the same sequence, the figures for `O=C(Nc1cc(-c2ccsc2)cn(C(Cc2ccc(Cl)cc2)C(=O)O)c1=O)c1ccc(-c2ccccc2)cc1` (stereo not drawn) [Compound 44, 2-{3-[(Biphenyl-4-carbonyl)amino]-2-oxo-5-thiophen-3-yl-2H-pyridin-1-yl}-3-(4-chlorophenyl)propionic acid] were 2.8 µM, greater than 100 µM and greater than 100 µM.
Regarding `O=C(Nc1cc(-c2ccoc2)cn(C(Cc2ccc(Cl)cc2)C(=O)O)c1=O)c1ccc(-c2ccccc2)cc1` (stereo not drawn) [Compound 45, 2-{3-[(Biphenyl-4-carbonyl)amino]-5-furan-3-yl-2-oxo-2H-pyridin-1-yl}-3-(4-chlorophenyl)propionic acid], the IC50 in assay [1] was 4 µM; in assay [2], greater than 100 µM; in assay [3] it was 49.4 µM.
In the case of `O=C(Nc1cc(-c2ccc(-c3ccccc3)cc2)cn(C(Cc2ccc(Cl)cc2)C(=O)O)c1=O)c1ccc(-c2ccccc2)cc1` (stereo not drawn) [Compound 47, 2-{3-[(Biphenyl-4-carbonyl)amino]-5-biphenyl-4-yl-2-oxo-2H-pyridin-1-yl}-3-(4-chlorophenyl)propionic acid], the 50% inhibitory concentration (IC50) in assay [1] was found to be 1.4 µM; in assay [2], 55 µM; in assay [3], 39.4 µM.
Taken in the same sequence, the figures for `O=C(Nc1cc(-c2ccc(Oc3ccccc3)cc2)cn(C(Cc2ccc(Cl)cc2)C(=O)O)c1=O)c1ccc(-c2ccccc2)cc1` (stereo not drawn) [Compound 48, 2-[3-[(Biphenyl-4-carbonyl)amino]-2-oxo-5-(4-phenoxyphenyl)-2H-pyridin-1-yl]-3-(4-chlorophenyl)propionic acid] were 1.2 µM, 35 µM and 33.2 µM.
Taken in the same sequence, the figures for `O=C(Nc1cc(-c2ccccc2Oc2ccccc2)cn(C(Cc2ccc(Cl)cc2)C(=O)O)c1=O)c1ccc(-c2ccccc2)cc1` (stereo not drawn) [Compound 49, 2-[3-[(Biphenyl-4-carbonyl)amino]-2-oxo-5-(2-phenoxyphenyl)-2H-pyridin-1-yl]-3-(4-chlorophenyl)propionic acid] were less than 0.8 µM, 48 µM and 46.3 µM.
On the same counts, the results for `O=C(Nc1cc(-c2cccs2)cn(C(Cc2ccc(Cl)cc2)C(=O)O)c1=O)c1ccc(-c2ccccc2)cc1` (stereo not drawn) [Compound 50, 2-{3-[(Biphenyl-4-carbonyl)amino]-2-oxo-5-thiophen-2-yl-2H-pyridin-1-yl}-3-(4-chlorophenyl)propionic acid] are 6.4 µM, 27 µM and 51.4 µM.
Turning to `O=C(Nc1cc(-c2ccc(F)cc2)cn(C(Cc2ccc(Cl)cc2)C(=O)O)c1=O)c1ccc(Oc2ccccc2)cc1` (stereo not drawn) [Compound 51, 3-(4-Chlorophenyl)-2-[5-(4-fluorophenyl)-2-oxo-3-(4-phenoxybenzoylamino)-2H-pyridin 1-yl]propionic acid], the IC50 is 4.9 µM in assay [1], greater than 100 µM in assay [2] and greater than 100 µM in assay [3].

What is called IC50 is the concentration that gives 50% inhibition.
